Entries after “also recorded” stand apart in the source; their conditions may differ. Structures can show the parent of a compound that is named as a salt.
Columns and labels:
cellular cAMP levels = assay: cAMP assay in cultured astrocytes; format: cell-based, rat; details: for effect on cellular cAMP levels stimulated by PG E2: EGTA or KN-93, PG E2 10 μM
Method: In brief, after aspirating the medium and rinsing twice with 1 ml ice cold PBS, the cells were scraped in 0.8 ml ice cold ethanol and sonicated. […] After resuspension in 120 μl Tris/EDTA buffer, two duplicate samples of 50 μl each were mixed with the binding protein, [8-^3H] adenosine 3′, 5′-cyclic phosphate tracer and incubated at 2-4° C. for 2 h. A charcoal suspension (100 μl) was added to the samples before centrifugation and 200 μl of the supernatant were removed for. scintillation counting. The amount of cyclic AMP (pmol/mg protein) was estimated by comparing to known standards, and normalized to the amounts of whole cell protein as determined by the bicinchoninic acid assay (Sigma).

APP holoprotein [1] = assay: Cell-associated APP (APP holoprotein), Western blot, cultured cortical astrocytes; details: for effect on basal APP holoprotein: p>0.05; for effect on cell-associated APP (APP holoprotein): PMA 5 μM or DNF 100 μM; for effect on the increase in APP holoprotein stimulated by PG E2: PG E2 10 μM; for levels of cellular and amyloidogenic APP holoprotein: aspirin or resveratrol, nano- or micromolar range, cultured astrocytes or neurons; for cellular APP holoprotein compared to untreated cells: antiserum R98
Method: Astrocytes are isolated from cortices from postnatal rats. […] In brief, dissected cortices were dissociated by trypsinization and trituration through a flame-polished Pasteur pipette. Cells were plated onto poly-L-lysine coated 35- or 100 mm culture dishes at densities of about 10-25 cells/mm^2. […] Media are changed twice weekly. […] Pharmacological manipulations are performed in serum-free media on 7-14 DIV confluent astrocytes.
To detect cell-associated protein (APP or GFAP), astrocytes from 35 mm dishes are scraped in lysis buffer (60 mM Tris/HCl, 4% SDS, 20% glycerol, 1 mM dithiothreitol), ultrasonicated and boiled for 5 min. The total amount of cell protein per dish, estimated using the bicinchoninic acid assay, is not altered by pharmacological treatments. Bromphenol blue (0.1%) is added to each sample and equal amounts of protein (˜75 mg/lane) are loaded on 10% SDS-polyacrylamide gels.
The amount of media or cell protein loaded for sodium dodecyl sulfate-polyacrylamide gel electrophoresis (10-20% SDS PAGE; Bio-Rad) was normalized for the amount of protein per sample. […] After 2×10 min rinses in TBST, the membranes were incubated in TBST containing an appropriate antibody. Monoclonal antibodies 22C11 and GFAP (both from Boehringer-Mannheim) were used to detect the N-terminus of APP and glial fibrillary acidic protein respectively; antisera R37 and R98 (gifts of Dr. F. Kametani, Tokyo Institute of Psychiatry) were used to detected the C-terminus and KPI motifs of APP respectively; antiserum C8 (gift of Dr. D. Selkoe, Women's Hospital, Harvard Medical School, Cambridge, Mass.) was used to detect the C-terminus of APP.
After an overnight incubation, membranes were rinsed in TBST before being treated for 1h with a peroxidase-linked secondary antibody. After several rinses in TBST, protein bands were visualized on Kodak X-AR films by an enhanced chemiluminescence method (Amersham). Optical densities of the protein bands were quantitated by laser scanning densitometry (LKB, Bromma, Sweden), and normalized to the densities of those bands generated under control conditions.

secreted APP (APPs) = assay: APPs secretion into the media of cultured cortical astrocytes, Western blot; format: cell-based, rat; details: for APPs secretion relative to untreated cells: PMA 5 μM or DNF 100 μM, 1 hour, mAb22C11; for APPs secretion, to that of untreated cells: PMA 5 μM, dexnorfenfluramine 100 μM
Method: Astrocytes are isolated from cortices from postnatal rats. […] Media are changed twice weekly.
To detect secreted APP, culture media was collected after drug treatments and phenylmethylsulfonyl fluoride was added to a final concentration of 2 mM. The media samples were then applied to Sephadex PD-10 desalting columns (Pharmacia) and eluted with distilled water. Column eluates were frozen and dried by vacuum centrifugation. The lyophilized proteins were reconstituted in 25 μL water followed by 25 μL of 2X Laemmli gel loading buffer, and boiled for 5 min.
(§1) Assays of PI hydrolysis are conducted as previously reported. Also, measurements of APPs are conducted as previously reported.

PI hydrolysis = PI hydrolysis in cultured astrocytes; format: cell-based, rat
Method: as §1

APP mRNA = assay: APP mRNA, Northern blot, cultured cortical astrocytes; details: for effect on APP mRNA: PMA 5 μM or dexnorfenfluramine 100 μM; for effect on the increase in APP mRNA stimulated by PG E2: EGTA or KN-93 100 μM, PG E2 10 μM
Method: Pharmacological manipulations are performed in serum-free media on 7-14 DIV confluent astrocytes.
Total RNA from astrocytes grown on 100 mm dishes is extracted by the acid guanidium thiocyanate-phenol-chloroform method. […] In brief, the medium was aspirated and the cells were scraped in 1 mL of TRI Reagent. After incubation for 15 min at room temperature, 0.2 ml chloroform was added, mixed vigorously with TRI Reagent and the mixture was stored for another 15 min at room temperature. After centrifugation at 12,000 g for 15 min, 0.5 ml isopropanol was added to the aqueous phase of the mixture to precipitate RNA. The RNA pellet collected by centrifugation (12,000 g, 15 min at 4° C.) was washed with 70% ethanol. once and solubilized in an appropriate amount of Formazol (Molecular Research Center, Cincinnati, Ohio). […] RNA was blotted onto Hybond polyvinyl membranes by overnight capillary transfer and fixed onto the membranes by UV light illumination. […] Membranes were dried and exposed to Kodak X-ray film for 24-48 h with an Amersham enhancer sheet. The relative amounts of mRNA obtained by hybridization were estimated using densitometric analysis of autoradiographs. The levels of APP mRNA were normalized to the amounts of G3PDH mRNA and expressed as a ratio to the levels of untreated, control cells.

APP synthesis = APP synthesis (APP mRNA and holoprotein) in cultured cortical astrocytes; format: cell-based, rat
APP holoprotein [2] = assay: Brain APP holoprotein in rats injected with p-chloroamphetamine (PCA) with or without aspirin; format: in vivo, rat; details: for brain APP holoprotein relative to control levels: rats, injections of aspirin alone
From the text: Neuronal injury can stimulate prostaglandin production., and thereby stimulate APP overexpression. We injected rats with para-chloroamphetamine (PCA), a neurotoxin which causes a loss of serotoninergic terminals in the brain.

[3] = aspirin or resveratrol, 1 h, nano- or micromolar range, cultured astrocytes or neurons
[4] = propranolol 50 μM with NE 50 μM
[5] = DFU or DFP 10^-9-10^-3 M, 1 h, cultured astrocytes

C=CC[C@@H]1/C=C(\C)C[C@H](C)C[C@H](OC)[C@H]2O[C@@](O)(C(=O)C(=O)N3CCCC[C@H]3C(=O)O[C@H](/C(C)=C/[C@@H]3CC[C@@H](O)[C@H](OC)C3)[C@H](C)[C@@H](O)CC1=O)[C@H](C)C[C@@H]2OC [FK-506]
effect on basal cAMP levels (cellular cAMP levels; cyclosporin A or FK-506 (50 μM) alone): no significant effect
effect on basal APP holoprotein (APP holoprotein [1]; cyclosporin A or FK-506 50 μM alone): no significant effect

C[C@H](N)Cc1cccc(C(F)(F)F)c1 [DNF, dexnorfenfluramine hydrochloride]
APPs secretion relative to untreated cells (secreted APP (APPs)): significantly increases
APPs secretion, to that of untreated cells (secreted APP (APPs)): ~2.2 fold
PI hydrolysis relative to untreated astrocytes (PI hydrolysis; dexnorfenfluramine 100 μM, p<0.05): ~2.6 fold
effect on APP mRNA (APP mRNA): does not increase
effect on cell-associated APP (APP holoprotein) (APP holoprotein [1]; 24 h, hydrochloride): no effect
effect on cell-associated APP (APP holoprotein) (APP holoprotein [1]; 24 h, listed as dexnorfenfluramine, hydrochloride): does not increase

CN1CCCC1c1cccnc1.O=C(O)C(O)C(O)C(=O)O.O=C(O)C(O)C(O)C(=O)O (centres unmarked) [nicotine ditartrate]
APP secreted in the media (secreted APP (APPs); nicotine ditartrate 1, 10 or 100 μM, 1 h): decreased
astrocytic APP holoprotein relative to untreated cells (APP holoprotein [1]; nicotine ditartrate 1, 10 or 100 μM, 24 h, p<0.05): significantly increased

O=C(O)CN(CCOCCOCCN(CC(=O)O)CC(=O)O)CC(=O)O [EGTA]
effect on basal cAMP levels (cellular cAMP levels; EGTA or KN-93 100 μM alone): no significant effect
effect on cellular cAMP levels stimulated by PG E2 (cellular cAMP levels): Neither EGTA nor KN-93 had a significant effect
effect on the increase in APP mRNA stimulated by PG E2 (APP mRNA; 24 h): significantly inhibited
effect on basal APP holoprotein (APP holoprotein [1]; EGTA or KN-93 100 μM alone): no significant effect
effect on the increase in APP holoprotein stimulated by PG E2 (APP holoprotein [1]; EGTA or KN-93 100 μM, 24 h): significantly inhibited

Oc1ccc(C=Cc2cc(O)cc(O)c2)cc1 [resveratrol]
secretion of soluble APPs (secreted APP (APPs); [3]): increase; also recorded: promotes
levels of cellular and amyloidogenic APP holoprotein (APP holoprotein [1]; 1 h): decreased levels; also recorded: decreases

Cc1c(C(=O)c2cccc3ccccc23)c2cccc3c2n1[C@H](CN1CCOCC1)CO3 [Win55212]
effect on APP synthesis (APP synthesis): decrease or inhibit

COc1ccc(S(=O)(=O)N(CCO)c2ccccc2CN(C)CC=Cc2ccc(Cl)cc2)cc1.O=P(O)(O)O [KN-93, N-[2-[[[3-(4′-chlorophenyl)-2-propenyl]methylamino]methyl]phenyl]-N-(2-hydroxyethyl)-4′-methoxy-benzenesulfonamide phosphate]
effect on basal cAMP levels (cellular cAMP levels; EGTA or KN-93 100 μM alone): no significant effect
effect on cellular cAMP levels stimulated by PG E2 (cellular cAMP levels): Neither EGTA nor KN-93 had a significant effect
effect on the increase in APP mRNA stimulated by PG E2 (APP mRNA; 24 h): significantly inhibited
effect on basal APP holoprotein (APP holoprotein [1]; EGTA or KN-93 100 μM alone): no significant effect
effect on the increase in APP holoprotein stimulated by PG E2 (APP holoprotein [1]; EGTA or KN-93 100 μM, 24 h): significantly inhibited

CCCCCCCCCCCCCC(=O)O[C@@H]1[C@@H](C)[C@@]2(O)[C@@H](C=C(CO)C[C@]3(O)C(=O)C(C)=C[C@@H]23)[C@@H]2C(C)(C)[C@]12OC(C)=O [PMA, phorbol 12-myristate 13-acetate]
APPs secretion relative to untreated cells (secreted APP (APPs)): significantly increases
APPs secretion, to that of untreated cells (secreted APP (APPs)): ~3.0 fold
effect on APP mRNA (APP mRNA): does not increase
effect on cell-associated APP (APP holoprotein) (APP holoprotein [1]; 24 h): no effect
effect on cell-associated APP (APP holoprotein) (APP holoprotein [1]; 24 h, listed as phorbol 12-myristate 13-acetate): does not increase

CC(C)NCC(O)COc1cccc2ccccc12 (centres unmarked) [propranolol]
effect on the NE-induced increase in cAMP formation (cellular cAMP levels; [4]): inhibits
effect on the NE-induced increase in PI hydrolysis (PI hydrolysis; [4]): no effect
effect on the NE- or isoproterenol-stimulated increase in APP mRNA (APP mRNA; propranolol 50 μM): to baseline levels; also recorded: significantly inhibited; also recorded: abolished
effect on basal APP protein levels (APP holoprotein [1]; propranolol 50 μM on its own): no significant effect
effect on the NE-stimulated increase in APP holoprotein (APP holoprotein [1]; [4]): inhibited
effect on APP synthesis (APP synthesis): decrease or inhibit

CC1(C)OC(=O)C(c2cccc(F)c2)=C1c1ccc(S(C)(=O)=O)cc1 [DFU, 5,5-dimethyl-3-(3-fluorophenyl)-4-(4-methylsulphonyl)phenyl-2(5H)-furanone]
secretion of soluble APPs (secreted APP (APPs); [5]): increases; also recorded: promotes
levels of cellular APP holoprotein (APP holoprotein [1]; [5]): decreases

CC(C)NCC(O)c1ccc(O)c(O)c1 (centres unmarked) [isoproterenol]
APP mRNA levels versus untreated cells (APP mRNA; 24 h, NE 50 or 100 μM, isoproterenol 50 μM, Northern blot): about 1.6 fold
APP mRNA, of untreated cells (APP mRNA; NE 50 or 100 μM, isoproterenol 50 μM): 180%
effect on APP mRNA levels above controls (APP mRNA; about 24 h, NE 50 or 100 μM, Iso 50 μM, 8Br-cAMP […] μM): mimicked

CC(=O)Oc1ccccc1C(=O)O [aspirin]
APP holoprotein levels versus uninjected control rats / effect on the PCA-induced increase (APP holoprotein [2]; rats injected with both aspirin and PCA): did not differ; also recorded: attenuated
brain APP holoprotein relative to control levels (APP holoprotein [2]): significant decrease
brain APP holoprotein relative to control levels (APP holoprotein [2]; listed as Aspirin): small, but significant decrease
secretion of soluble APPs (secreted APP (APPs); [3]): increase
secretion of soluble APPs (secreted APP (APPs); aspirin or resveratrol, 1 h, nano- or micromolar range, cultured astrocytes or neurons, listed as Aspirin): promotes
levels of cellular and amyloidogenic APP holoprotein (APP holoprotein [1]; 1 h): decreased levels
levels of cellular and amyloidogenic APP holoprotein (APP holoprotein [1]; 1 h, listed as Aspirin): decreases

Cl.Cl.O=S(=O)(NCCNC/C=C/c1ccc(Br)cc1)c1cccc2cnccc12 [H-89, H-89 dihydrochloride]
effect on PG E2-stimulated APP mRNA production (APP mRNA; H-89 dihydrochloride): blocked
effect on the increase in APP holoprotein stimulated by PG E2 (APP holoprotein [1]; H-89 100 μM, 24 h): completely abolished

NCCNS(=O)(=O)c1cccc2cnccc12 [H9]
effect on APP synthesis (APP synthesis): decrease or inhibit

CCN(CC)CC.Nc1ncnc2c1ncn2[C@@H]1O[C@@H]2COP(O)(=S)O[C@H]2[C@H]1O (some centres unmarked) [Sp-cAMP triethylamine]
cellular APP holoprotein compared to untreated cells (APP holoprotein [1]; Sp-cAMP triethylamine 50 μM, 24 h): 1.6 fold
cellular APP holoprotein compared to untreated cells (APP holoprotein [1]; Sp-cAMP triethylamine 100 μM, 24 h): 1.9 fold
cellular APP holoprotein compared to untreated cells (APP holoprotein [1]; Sp-cAMP triethylamine 150 μM, 24 h): 2.2 fold
effect on astrocytic APP holoprotein (APP holoprotein [1]; Sp-cAMP triethylamine in the absence of PG E2): sufficient to stimulate increases

Source: patent US6469055B2, “Compositions and methods for treatment of neurological disorders and neurodegenerative diseases” (Massachusetts Institute of Technology, priority 1996, dated 2002)
